Structures can show the parent of a compound that is named as a salt.
Columns and labels:
Assay type in all cases: in vivo
[1] = system: Cotton Aphid (Aphis gossypii); test: Test (foliar spraying) for controlling cotton aphid; details: 120 h, 5 days after treatment; for mortality at 200 ppm: foliar spraying on cucumber leaf
Method: A cucumber leaf cut to a diameter of 3.5 cm was placed on cotton wool moistened with water. Two adult cotton aphids were released there for offspring for 24 hours and the adult insects were then removed. […] After air-drying, the sample with cotton wool was placed in a plastic cup, which was covered with a lid and kept in a chamber at a constant temperature of 25° C. for rearing.

[2] = system: Southern Yellow thrips (Thrips palmi); test: Test (foliar spraying) for controlling southern yellow thrips; details: 3 days after treatment; for mortality at 200 ppm: 72 h, foliar spraying on cucumber leaf, first instar larvae; for Mortality of Thrips palmi (%): foliar spraying
Method: A cucumber leaf cut to a diameter of 1.5 cm was placed on cotton wool moistened with water. […] After air-drying, 5 larvae of southern yellow thrips in the first instar larva were released there. The sample with cotton wool was placed in a plastic cup, which was covered with a lid and kept in a chamber at a constant temperature of 25° C. for rearing.

[3] = system: Brown Planthopper (Nilaparvata lugens); test: Test (foliar dipping) for controlling brown planthopper; details: 120 h, rice seedlings dipped, 5 days after treatment; for mortality at 200 ppm: third instar larvae
Method: […] After air-drying, the rice seedlings held with urethane in a glass cylinder having an inner diameter of 4.5 cm and a length of 14 cm were set up in a plastic cup containing 40 mL of water. Larvae of brown planthoppers in the third instar larva were released there. The cylinder was covered with a lid of medicine paper and kept in a chamber at a constant temperature of 25° C. for rearing.

[4] = system: Brown Planthopper (Nilaparvata lugens); test: Test (root dipping) for controlling brown planthopper; details: 5 days after treatment
Method: (§1) Ten sampled rice seedlings held with urethane in a glass cylinder having an inner diameter of 4.5 cm and a length of 14 cm were set up in a plastic cup containing 40 mL of chemical solution diluted to a desired concentration. After 2 days, 10 larvae of brown planthoppers in the third instar larva were released in the glass cylinder. The glass cylinder was covered with a lid of medicine paper and kept in a chamber at a constant temperature of 25° C. for rearing.

[5] = system: Brown Planthopper (Nilaparvata lugens); test: Residual effect test (field experiment) for brown planthopper
Method: The roots of five sampled rice seedlings were washed with water. Subsequently, 25 mg of the wettable powder prepared in accordance with Formulation Example 2 described above was wrapped in the roots. Each strain was made from the five seedlings. In outdoor artificial paddy fields made from wooden frames having a size of 60 cm by 90 cm, 10 strains were planted, respectively. The artificial paddy field was shielded by an insect screen with a mesh size of 1 mm, so that invasion of harmful insects from the outside was prevented. Into the test system, 40 to 100 adult brown planthoppers were released at fixed intervals so as to cause damage to the rice. On 16 to 51 days after the treatment, the numbers of surviving insects and dead insects were measured to calculate the density index. The density index was obtained from the following expression.

[6] = system: Rice Leaf Beetle (Oulema oryzae); test: Test (root dipping) for controlling rice leaf beetle; details: 1.6 ppm, root dipping of rice seedlings, late instar larvae released after 2 days, 4 days after treatment
Method: as §1, with “4” for “10”, “rice leaf beetle” for “brown planthoppers”, “late” for “third”

[7] = system: Inedorooimushi (Oulema oryzae); test: Test (pot test) for controlling inedorooimushi; details: larvae released 20 days after treatment, 2 days after release
Method: The roots of five sampled rice seedlings were washed with water. The wettable powder prepared in accordance with Formulation Example 2 described above was wrapped in the roots to be planted in a Wagner pot of 1/10000 a. After 20 days from the treatment, 3 larvae of inedorooimushi in the late instar larva were released per strain and reared in a plastic greenhouse with a room temperature set at 25° C. On 2 days after the releasing of the insects, the mortality of the insect was calculated.

[8] = system: Rice Stem Borer (Chilo suppressalis); test: Test (pot test) for controlling rice stem borer; details: 14 days after treatment
Method: The roots of five sampled rice seedlings were washed with water. The wettable powder prepared in accordance with Formulation Example 2 described above was wrapped in the roots to be planted in a Wagner pot of 1/10000 a. After 4 days from the treatment, a total of […] of rice stem borer were released per strain and reared in a plastic greenhouse with a room temperature set at 25° C. On 14 days after the treatment, the ratio of browning stem of seedlings for each strain and the ratio to untreated ones were calculated. Double system.

[9] = system: Brown Winged Green Stink Bug (Plautia stali); test: Test (greenhouse test) for controlling brown winged green stink bug; details: 100 ppm sprayed on apple fruit
Method: Using a commercially available hand spray, a chemical solution diluted to a concentration of 100 ppm was sprayed onto an apple fruit (cultivar: Fuji). After air-drying, the apple fruit was placed in a plastic cup, which was allowed to stand still for a specified number of […] in a plastic greenhouse with a room temperature set at 25° C. and with the natural light shining thereon. On 7 days after the treatment, 5 adult brown winged green stink bugs (without distinction between male and female) were released onto the treated fruit. On 4 days after the release of insects, the numbers of death and abnormality were observed and recorded. Triple system. Also, the fruit after examination was immersed in an acidic 0.5% fuchsine solution for 30 minutes, and then washed with water to measure the total number of sapping scars.

[10] = After 16 days, 25 mg wettable powder (Formulation Example 2) at roots per strain, outdoor artificial paddy field
[11] = After 23 days, 25 mg wettable powder at roots per strain, artificial paddy field
[12] = After 30 days, 25 mg wettable powder at roots per strain, artificial paddy field
[13] = After 37 days, 25 mg wettable powder at roots per strain, artificial paddy field
[14] = After 44 days, 25 mg wettable powder at roots per strain, artificial paddy field
[15] = After 51 days, 25 mg wettable powder at roots per strain, artificial paddy field
[16] = 5 adults released 7 days after treatment, triple system, 4 days after release

Cc1cccc(-c2c([O-])[n+](CCCCCCCC#N)c3ccccn3c2=O)c1 [Comparative compound 1]
mortality at 200 ppm [1]: 0%

Cc1cccc(-c2c([O-])[n+](CCCCCC#N)c3ccccn3c2=O)c1 [Comparative compound 2]
mortality at 50 ppm ([1]; foliar spraying): 0%
mortality at 200 ppm [1]: 20%

Cc1cccc(-c2c([O-])[n+](CCCCC#N)c3ccccn3c2=O)c1 [Comparative compound 3]
mortality at 12.5 ppm ([1]; foliar spraying): 0%
mortality at 50 ppm ([1]; foliar spraying): 40%
mortality at 200 ppm [1]: 100%

N#CCCC[n+]1c([O-])c(-c2cccc(C(F)(F)F)c2)c(=O)n2ccccc21 [Comparative compound 4]
mortality at 3.1 ppm ([1]; foliar spraying): 0%
mortality at 12.5 ppm ([1]; foliar spraying): 75%

N#CC[n+]1c([O-])c(-c2cccc(C(F)(F)F)c2)c(=O)n2ccccc21 [Comparative compound 5]
mortality at 3.1 ppm ([1]; foliar spraying): 0%
mortality at 12.5 ppm ([1]; foliar spraying): 10%

CC(C#N)C[n+]1c([O-])c(-c2cccc(C(F)(F)F)c2)c(=O)n2ccccc21 (stereo not shown) [Comparative compound 6]
mortality at 12.5 ppm ([1]; foliar spraying): 50%
mortality at 50 ppm ([1]; foliar spraying): 100%

CC(CC#N)[n+]1c([O-])c(-c2cccc(C(F)(F)F)c2)c(=O)n2ccccc21 (stereo not shown) [Comparative compound 7]
mortality at 200 ppm [1]: 0%

N#CCC[n+]1c([O-])c(-c2ccccc2)c(=O)n2ccccc21 [Compound 1, 1-(2-cyanoethyl)-2-hydroxy-4-oxo-3-phenyl-4H-pyrido[1,2-a]pyrimidinium inner salt]
mortality at 200 ppm [2]: ≥ 80%
mortality at 200 ppm [1]: ≥ 80%
mortality at 0.012 ppm ([3]; 0.012 ppm): 50%
mortality at 0.024 ppm ([3]; 0.024 ppm): 60%
mortality at 0.049 ppm ([3]; 0.049 ppm): 70%
mortality at 200 ppm [3]: ≥ 80%

COc1cccc(-c2c([O-])[n+](CCC#N)c3ccccn3c2=O)c1 [Compound 18, 1-(2-cyanoethyl)-2-hydroxy-3-(3-methoxyphenyl)-4-oxo-4H-pyrido[1,2-a]pyrimidinium inner salt]
Mortality of Thrips palmi (%) ([2]; 3.1 ppm): 100%
Mortality of Thrips palmi (%) ([2]; 12.5 ppm): 100%
Mortality of Thrips palmi (%) ([2]; 50 ppm): 100%
mortality at 200 ppm [2]: ≥ 80%
mortality at 200 ppm [1]: ≥ 80%
mortality at 0.01 ppm [3]: 10%
mortality at 0.02 ppm [3]: 20%
mortality at 0.05 ppm [3]: 100%
mortality at 200 ppm [3]: ≥ 80%

CCOc1cccc(-c2c([O-])[n+](CCC#N)c3ccccn3c2=O)c1 [Compound 21, 1-(2-cyanoethyl)-3-(3-ethoxyphenyl)-2-hydroxy-4-oxo-4H-pyrido[1,2-a]pyrimidinium inner salt]
mortality at 200 ppm [2]: ≥ 80%
mortality at 200 ppm [1]: ≥ 80%
mortality at 0.01 ppm [3]: 10%
mortality at 0.02 ppm [3]: 70%
mortality at 0.05 ppm [3]: 80%
mortality at 200 ppm [3]: ≥ 80%

Cc1cccn2c(=O)c(-c3cc(Cl)cc(Cl)c3)c([O-])[n+](Cc3cnc(Cl)s3)c12 [Dicloromezotiaz]
mortality at 200 ppm [2]: 0%
mortality at 200 ppm ([4]; 200 ppm, root dipping of rice seedlings, larvae released after 2 days): 0%
mortality at 12.5 ppm ([1]; foliar spraying): 0%
mortality at 50 ppm ([1]; foliar spraying): 90%
mortality at 200 ppm [1]: 100%
mortality at 200 ppm [3]: 0%

N#Cc1nn(-c2c(Cl)cc(C(F)(F)F)cc2Cl)c(N)c1[S+]([O-])C(F)(F)F (stereo not shown) [Fipronil, reference compound]
Density index of Nilaparvata lugens [5, 10]: 0
Density index of Nilaparvata lugens [5, 11]: 5.4
Density index of Nilaparvata lugens [5, 12]: 56.2
Density index of Nilaparvata lugens [5, 13]: 73.9
Density index of Nilaparvata lugens [5, 14]: 105
Density index of Nilaparvata lugens [5, 15]: 98.4

O=c1c(-c2cccc(C(F)(F)F)c2)c([O-])[n+](Cc2cncnc2)c2ccccn12 [Triflumezopyrim, reference compound]
mortality at 1.6 ppm [6]: 0%
mortality at 125 g/ha ([7]; 125 g/ha): 16.7%
mortality at 250 g/ha ([7]; 250 g/ha): 50%
mortality at 500 g/ha ([7]; 500 g/ha as wettable powder at rice roots): 66.7%
Mortality of Thrips palmi (%) ([2]; 12.5 ppm): 0%
Mortality of Thrips palmi (%) ([2]; 50 ppm): 60%
mortality at 200 ppm [2]: 100%
mortality at 0.05 ppm ([4]; 120 h, 0.05 ppm, root dipping): 0%
mortality at 0.1 ppm ([4]; 120 h, 0.1 ppm, root dipping): 70%
mortality at 0.2 ppm ([4]; 120 h, 0.2 ppm, root dipping): 70%
mortality at 0.4 ppm ([4]; 120 h, 0.4 ppm, root dipping): 70%
mortality at 0.8 ppm ([4]; 120 h, 0.8 ppm, root dipping): 100%
Browning stem ratio (%) ([8]; 500 g/ha as wettable powder (Formulation Example 2) at rice roots, hatchlings released after 4 days): 40%
Ratio to untreated (%) ([8]; browning stem ratio relative to untreated, 500 g/ha): 49%
Density index of Nilaparvata lugens [5, 10]: 2.5
Density index of Nilaparvata lugens [5, 11]: 5.4
Density index of Nilaparvata lugens [5, 12]: 45.1
Density index of Nilaparvata lugens [5, 13]: 56.7
Density index of Nilaparvata lugens [5, 14]: 63.9
Density index of Nilaparvata lugens [5, 15]: 92.2
mortality at 0.2 ppm ([1]; 0.20 ppm, foliar spraying): 0%
mortality at 0.39 ppm ([1]; 0.39 ppm, foliar spraying): 60%
mortality at 0.78 ppm ([1]; 0.78 ppm, foliar spraying): 85%
mortality at 0.1 ppm ([3]; 0.1 ppm): 10%
mortality at 0.2 ppm ([3]; 0.2 ppm): 70%
Number of abnormal insects [9, 16]: 5
Number of dead insects [9, 16]: 4
Number of normal insects [9, 16]: 6
Total number of sheaths formed by stylet insertion ([9]; fruit stained with fuchsine after examination): 10
Proportion of abnormal insects and dead insects on 4 days after releasing insects (%) ([9]; insects released 7 days after treatment): 60.0%
